Test system: ALP in NHAC (normal human articular chondrocytes)
Experiment: Alkaline Phosphatase (ALP) activity assay: ALP staining and quantitation in NHACs (prevention of chondrocyte hypertrophy)
Format: cell-based
Details: Chondrocyte, 288 h, human IL-1 beta 10 ng/mL, 12 days; for IC50: Fast Blue RR staining, high content imaging; for Emax: read-out: ALP in NHAC (% Efficacy)
Experimental: The compounds of the present invention were evaluated in the Alkaline Phosphatase (ALP) activity assay to determine the ability of the compounds to prevent chondrocyte hypertrophy in normal human articular chondrocytes (NHACs).
Normal human articular chondrocytes (NHACs) were purchased from PromoCell (Heidelberg, Germany) and grown in Chondrocyte Growth Medium (CGM; Lonza, Walkersville, Md.).
NHACs were expanded in Chondrocyte Growth Medium (CGM) from Lonza until they reached a 60-80% confluency. To initiate differentiation, 7,500 cells were plated/well with indicated test compound dose in 384-well Cell Carrier Ultra plates (Perkin Elmer) with DMEM (SH30022—HyClone) containing 10% FBS (35-015-CV—Corning), 1% Pen/Strep antibiotics (SV30010—HyClone), and 1% Normocin (50 mg/mL—InvivoGen). Cells with test compounds were incubated at 37° C., 5% CO2 for 5 hours and then added human IL-1 beta (AF-200-1B—Peprotech) to each well at a final concentration of 10 ng/mL and incubated at 37° C., 5% CO2 for 12 days.
To detect the presence of hypertrophic cells, NHACs were fixed with 4% paraformaldehyde and Hoechst 33342 (Invitrogen) dye for 30 minutes, rinsed in PBS, then stained with Fast Blue RR Salt (F0500—Sigma) with Naphthol AS-MX Phosphate Alkaline Solution, 0.25% (855—Sigma-Aldrich).
The staining was imaged by fluoresecent microscopy, using the 561 nm wavelength, and/or quantified by high content imaging with the ImageXpress Confocal (Molecular Devices, Sunnyvale, CA). Data analyses were performed with a customized multiwavelength cell-scoring application The activity of the compounds of the present invention in the ALP assay is summarized in Table 2.

Structure (SMILES) | IC50 | Emax
Cn1cc([C@@]23C[C@]2(C(=O)Nc2ccc(F)c(C(F)(F)F)c2)[C@H]2C[C@H](O)[C@@H]3O2)c(C(F)(F)F)n1 (racemic) [Example 55, rac-(1R,2R,4S,5R,6S)-N-(4-fluoro-3-(trifluoromethyl)phenyl)-6-hydroxy-4-(1-methyl-3-(trifluoromethyl)-1H-pyrazol-4-yl)-8-oxatricyclo[3.2.1.02,4]octane-2-carboxamide] | > 30 µM | 14%
Cc1ccc(NC(=O)[C@]23C[C@@]2(c2ccnc(F)c2)[C@H]2O[C@@H]3C[C@@H]2O)cc1C(F)(F)F (racemic) [Example 11, rac-(1R,2R,4S,5R,6S)-4-(2-fluoropyridin-4-yl)-6-hydroxy-N-(4-methyl-3-(trifluoromethyl)phenyl)-8-oxatricyclo[3.2.1.02,4]octane-2-carboxamide] | > 30 µM | 0%
COc1cc([C@@]23C[C@]2(C(=O)Nc2cc(C(F)(F)F)ccc2C)[C@H]2C[C@H](O)[C@@H]3O2)ccn1 (racemic) [Example 30, rac-(1R,2R,4S,5R,6S)-6-hydroxy-4-(2-methoxypyridin-4-yl)-N-(2-methyl-5-(trifluoromethyl)phenyl)-8-oxatricyclo[3.2.1.02,4]octane-2-carboxamide] | > 30 µM | 27%
COc1cc([C@@]23C[C@]2(C(=O)Nc2ccc(C#N)c(C(F)(F)F)c2)[C@H]2C[C@H](O)[C@@H]3O2)ccn1 (racemic) [Example 38, rac-(1R,2R,4S,5R,6S)—N-(4-cyano-3-(trifluoromethyl)phenyl)-6-hydroxy-4-(2-methoxypyridin-4-yl)-8-oxatricyclo[3.2.1.02,4]octane-2-carboxamide] | 24 µM | 71%
COc1cc([C@@]23C[C@]2(C(=O)Nc2ccc(C(F)(F)F)c(Cl)c2)[C@H]2C[C@H](O)[C@@H]3O2)ccn1 (racemic) [Example 74, rac-(1R,2R,4S,5R,6S)—N-(3-chloro-4-(trifluoromethyl)phenyl)-6-hydroxy-4-(2-methoxypyridin-4-yl)-8-oxatricyclo[3.2.1.02,4]octane-2-carboxamide] | 3.4 µM | 77%
COc1cc([C@@]23C[C@]2(C(=O)Nc2cc(F)cc(C(F)(F)F)c2)[C@H]2C[C@H](O)[C@@H]3O2)ccn1 (racemic) [Example 73, rac-(1R,2R,4S,5R,6S)—N-(3-fluoro-5-(trifluoromethyl)phenyl)-6-hydroxy-4-(2-methoxypyridin-4-yl)-8-oxatricyclo[3.2.1.02,4]octane-2-carboxamide] | > 30 µM | 49%
Cn1cc([C@@]23C[C@]2(C(=O)Nc2ccc(Cl)c(C(F)(F)F)c2)[C@H]2C[C@H](O)[C@@H]3O2)c(C(F)(F)F)n1 (racemic) [Example 58, rac-(1R,2R,4S,5R,6S)—N-(4-chloro-3-(trifluoromethyl)phenyl)-6-hydroxy-4-(1-methyl-3-(trifluoromethyl)-1H-pyrazol-4-yl)-8-oxatricyclo[3.2.1.02,4]octane-2-carboxamide] | > 30 µM | 29%
Cn1cc([C@@]23C[C@]2(C(=O)Nc2cc(C(F)(F)F)c(Cl)cn2)[C@H]2C[C@H](O)[C@@H]3O2)c(C(F)(F)F)n1 (racemic) [Example 45, rac-(1R,2R,4S,5R,6S)—N-(5-chloro-4-(trifluoromethyl)pyridin-2-yl)-6-hydroxy-4-(1-methyl-3-(trifluoromethyl)-1H-pyrazol-4-yl)-8-oxatricyclo[3.2.1.02,4]octane-2-carboxamide] | > 30 µM | 46%
Cn1cc([C@@]23C[C@]2(C(=O)Nc2cc(C(F)(F)F)cc(Cl)n2)[C@H]2C[C@H](O)[C@@H]3O2)c(C(F)(F)F)n1 (racemic) [Example 44, rac-(1R,2R,4S,5R,6S)—N-(6-chloro-4-(trifluoromethyl)pyridin-2-yl)-6-hydroxy-4-(1-methyl-3-(trifluoromethyl)-1H-pyrazol-4-yl)-8-oxatricyclo[3.2.1.02,4]octane-2-carboxamide] | > 30 µM | 37%
Cn1cc([C@@]23C[C@]2(C(=O)Nc2cc(Cl)cc(C(F)(F)F)c2)[C@H]2C[C@H](O)[C@@H]3O2)c(C(F)(F)F)n1 (racemic) [Example 59, rac-(1R,2R,4S,5R,6S)-N-(3-chloro-5-(trifluoromethyl)phenyl)-6-hydroxy-4-(1-methyl-3-(trifluoromethyl)-1H-pyrazol-4-yl)-8-oxatricyclo[3.2.1.02,4]octane-2-carboxamide] | > 30 µM | 35%
CCOc1cc(C(F)(F)F)cc(NC(=O)[C@]23C[C@@]2(c2ccnc(F)c2)[C@H]2O[C@@H]3C[C@@H]2O)n1 (racemic) [Example 8, rac-(1R,2R,4S,5R,6S)—N-(6-ethoxy-4-(trifluoromethyl)pyridin-2-yl)-4-(2-fluoropyridin-4-yl)-6-hydroxy-8-oxatricyclo[3.2.1.02,4]octane-2-carboxamide] | > 30 µM | 26%
COc1cc([C@@]23C[C@]2(C(=O)Nc2cc(C#N)cc(C(F)(F)F)c2)[C@H]2C[C@H](O)[C@@H]3O2)ccn1 (racemic) [Example 72, rac-(1R,2R,4S,5R,6S)—N-(3-cyano-5-(trifluoromethyl)phenyl)-6-hydroxy-4-(2-methoxypyridin-4-yl)-8-oxatricyclo[3.2.1.02,4]octane-2-carboxamide] | > 30 µM | 37%
Cc1cc(NC(=O)[C@]23C[C@@]2(c2ccnc(F)c2)[C@H]2O[C@@H]3C[C@@H]2O)cc(C(F)(F)F)c1 (racemic) [Example 12, rac-(1R,2R,4S,5R,6S)-4-(2-fluoropyridin-4-yl)-6-hydroxy-N-(3-methyl-5-(trifluoromethyl)phenyl)-8-oxatricyclo[3.2.1.02,4]octane-2-carboxamide] | > 30 µM | 21%
COc1cc([C@@]23C[C@]2(C(=O)Nc2cc(Cl)cc(C(F)(F)F)c2)[C@H]2C[C@H](O)[C@@H]3O2)ccn1 (racemic) [Example 71, rac-(1R,2R,4S,5R,6S)—N-(3-chloro-5-(trifluoromethyl)phenyl)-6-hydroxy-4-(2-methoxypyridin-4-yl)-8-oxatricyclo[3.2.1.02,4]octane-2-carboxamide] | > 30 µM | 9%
Cc1c(NC(=O)[C@]23C[C@@]2(c2ccnc(F)c2)[C@H]2O[C@@H]3C[C@@H]2O)cccc1C(F)(F)F (racemic) [Example 10, rac-(1R,2R,4S,5R,6S)-4-(2-fluoropyridin-4-yl)-6-hydroxy-N-(2-methyl-3-(trifluoromethyl)phenyl)-8-oxatricyclo[3.2.1.02,4]octane-2-carboxamide] | > 30 µM | 6%
O=C(Nc1cc(C(F)(F)F)ccn1)[C@]12C[C@@]1(c1cccc(C(F)(F)F)c1)[C@H]1O[C@@H]2C[C@@H]1O (racemic) [Example 82, rac-(1R,2R,4S,5R,6S)-6-hydroxy-4-(3-(trifluoromethyl)phenyl)-N-(4-(trifluoromethyl)pyridin-2-yl)-8-oxatricyclo[3.2.1.02,4]octane-2-carboxamide] | > 30 µM | 36%
Cn1cc([C@@]23C[C@]2(C(=O)Nc2ccc(C#N)c(C(F)(F)F)c2)[C@H]2C[C@H](O)[C@@H]3O2)c(C(F)(F)F)n1 (racemic) [Example 68, rac-(1R,2R,4S,5R,6S)—N-(4-cyano-3-(trifluoromethyl)phenyl)-6-hydroxy-4-(1-methyl-3-(trifluoromethyl)-1H-pyrazol-4-yl)-8-oxatricyclo[3.2.1.02,4]octane-2-carboxamide] | > 30 µM | 50%
COc1cc([C@@]23C[C@]2(C(=O)Nc2cc(C(F)(F)F)ccc2F)[C@H]2C[C@H](O)[C@@H]3O2)ccn1 (racemic) [Example 33, rac-(1R,2R,4S,5R,6S)—N-(2-fluoro-5-(trifluoromethyl)phenyl)-6-hydroxy-4-(2-methoxypyridin-4-yl)-8-oxatricyclo[3.2.1.02,4]octane-2-carboxamide] | > 30 µM | 12%
O=C(Nc1ccc(Cl)c(C(F)(F)F)c1)[C@]12C[C@@]1(c1ccnc(F)c1)[C@H]1O[C@@H]2C[C@@H]1O (racemic) [Example 18, rac-(1R,2R,4S,5R,6S)—N-(4-chloro-3-(trifluoromethyl)phenyl)-4-(2-fluoropyridin-4-yl)-6-hydroxy-8-oxatricyclo[3.2.1.02,4]octane-2-carboxamide] | > 30 µM | 25%
Cn1cc([C@@]23C[C@]2(C(=O)Nc2cc(C(F)(F)F)cc(C(F)(F)F)c2)[C@H]2C[C@H](O)[C@@H]3O2)c(C(F)(F)F)n1 (racemic) [Example 63, rac-(1R,2R,4S,5R,6S)—N-(3,5-bis(trifluoromethyl)phenyl)-6-hydroxy-4-(1-methyl-3-(trifluoromethyl)-1H-pyrazol-4-yl)-8-oxatricyclo[3.2.1.02,4]octane-2-carboxamide] | 29 µM | 56%
